This is an account of results in patent US5912245A, “Acid amide derivatives and process for the preparation thereof” (Egis Gyogyszergyar RT., priority 1994, dated 1999).

“Also recorded” adds a separate entry of the source.

For assay [1], the system named is AMPA. The settings on record: cited from earlier work.
Assay [2] addresses NMDA (CGS 19755 receptor). Put plainly: Selectivity: CGS 19755 receptor binding test. The protocol: The experiment was carried out according to the method of Foster et al. [A. Foster and E. H. F. Wong: Brit.
Assay [3] concerns AMPA recognition site. Description: ^3H-AMPA binding (radioligand competitive binding assay). Also noted: species or system rat. The settings on record: compared with DNQX. The protocol:
(§1) 1. ^3 H-AMPA and ^3 H-kainate binding (radioligand competitive binding assay)
(§2) The experiment was carried out according to the method of Murphy et al. [D. E. Murphy, E. W. Snowhill, M. Williams: Neurochem. Res. 12, 775-782 (1987)] using a membrane specimen isolated from rat brain. The binding of kainate labeled with tritium on a rat cortex specimen was measured according to the method of Honore et al. [T. Honore, J. Dejer and M. Nielsen: Neurosci. Lett. 65, 48-52 (1986)].

In assay [4] the test system is kainate recognition site. Description: ^3H-kainate binding (radioligand competitive binding assay). The following applies: compared with DNQX. Also noted: species or system rat. As to the method:
as §1, §2

Assay [5] has as its system AMPA and kainate. Description: AMPA and kainate antagonism (overall conclusion from the binding and selectivity tests). The protocol:
as §2
The experiment was carried out according to the method of Foster et al. [A. Foster and E. H. F. Wong: Brit. J. Pharmacol. 91, 403-409, (1987)]. When applying the CGS 19755 receptor binding test the method of Murphy et al. [D. E. Murphy, A. J. Hutchison, S. D. Hurt, M. Williams and M. A. Sills: Brit. J. Pharmacol. 95, 932-938 (1988)] was applied.

For `N#Cc1cc2[nH]c(=O)c(=O)[nH]c2cc1[N+](=O)[O-]` [CNQX, 6-cyano-7-nitro-quinoxaline-2,3-dione], in assay [1], the “AMPA antagonizing property, in words” value is “selective AMPA antagonizing property”.
Take `O=c1[nH]c2cc([N+](=O)[O-])c([N+](=O)[O-])cc2[nH]c1=O` [DNQX, 6,7-dinitroquinoxaline-2,3-dione, reference compound]: in assay [2], the “Binding of ^3H-CGS-19755 Ki” value was “does not "converge"”. Besides, the “AMPA antagonizing property, in words” value in assay [1] was “selective AMPA antagonizing property”.
Turning to `O=c1[nH]c2cc([N+](=O)[O-])c(S(=O)(=O)NCCN3CCCCC3)cc2[nH]c1=O` [Example 17, 1,2,3,4-Tetrahydro-7-nitro-2,3-dioxo-N-(2-piperidinoethyl)-6-quinoxaline sulfonamide], in assay [3], the “displacement of labeled AMPA, in words” value was “affinity similar to that of DNQX; also recorded: good reversible ligand”. The “displacement of labeled kainate, in words” value in assay [4] is on record as “affinity similar to that of DNQX; also recorded: good reversible ligand”. Further, the “Binding of ^3H-CGS-19755 Ki” value in assay [2] is on record as “not "converge"”. Also, in assay [5], the “AMPA and kainate antagonism, in words” value was “selective AMPA and kainate antagonists”.
Regarding `O=c1[nH]c2cc([N+](=O)[O-])c(S(=O)(=O)N(CCO)CCO)cc2[nH]c1=O` [Example 24, N,N-bis(2-Hydroxyethyl)-1,2,3,4-tetrahydro-7-nitro-2,3-dioxo-6-quinoxaline sulfonamide], in assay [2], the “Binding of ^3H-CGS-19755 Ki” value was “does not "converge"”. Besides, in assay [5], the “AMPA and kainate antagonism, in words” value is “selective AMPA and kainate antagonists”.
